Test results published in US9775831B2, “Combinations comprising biphenyl derivatives for use in the treatment of HCV” (BRISTOL-MYERS SQUIBB COMPANY, priority 2013, dated 2017).

These molecules were tested on genotype-1a variant with glutamine 30 changed to glutamate in the NS5A protein (assay: HCV replicon cell-based assay, NS5A synergy with BMS-790052). Conditions: genotype 1a Q→E variant; test compound titrated in combination with NS5A-targeting compound (BMS-790052 fixed at 200 nM).
Text: The NS5A synergistic inhibitory effect of test compounds can be determined using various amounts of an NS5A-targeting compound with titration of a second compound of interest. […] In one embodiment, the HCV genotype strain can be genotype 1a containing a change at amino acid 30 of the NS5A protein consisting of glutamine to glutamate. The test compound can be chosen from compounds listed above or from others present in the literature.

Compound | Fold Synergistic (1a-QE) [Fold]
CC(C)[C@H](CC(=O)N(C)CC(=O)N(C)C)c1ncc(-c2ccc(-c3ccc(-c4cnc([C@@H](CC(=O)N(C)CC(=O)N(C)C)C(C)C)[nH]4)cc3)cc2)[nH]1 [MD-30] | <10
CC(C)[C@H](CC(=O)N(C)CC(=O)NC(C)(C)C)c1ncc(-c2ccc(-c3ccc(-c4cnc([C@@H](CC(=O)N(C)CC(=O)NC(C)(C)C)C(C)C)[nH]4)cc3)cc2)[nH]1 [MD-25] | >10
C[C@H](CC(=O)N1CCC(F)(F)CC1)c1nc(-c2ccc(-c3ccc(-c4c[nH]c([C@H](C)CC(=O)N5CCC(F)(F)CC5)n4)cc3)cc2)c[nH]1 [Example MD-13] | >100
CC(C)[C@H](CC(=O)N(CCN1CCOC1=O)CC(C)(C)C)c1ncc(-c2ccc(-c3ccc(-c4cnc([C@@H](CC(=O)N(CCN5CCOC5=O)CC(C)(C)C)C(C)C)[nH]4)cc3)cc2)[nH]1 [MD-27] | >10
CC(C)[C@H](CC(=O)NCC12CC3CC(CC(C3)C1)C2)c1ncc(-c2ccc(-c3ccc(-c4cnc([C@@H](CC(=O)NCC56CC7CC(CC(C7)C5)C6)C(C)C)[nH]4)cc3)cc2)[nH]1 [MD-22] | >100
CC(C)[C@H](CC(=O)NC1(C#N)CC1)c1ncc(-c2ccc(-c3ccc(-c4cnc([C@@H](CC(=O)NC5(C(N)=O)CC5)C(C)C)[nH]4)cc3)cc2)[nH]1 [MD-33] | <10
CC(C)(C)C(C(=O)N1CCCC1)c1ncc(-c2ccc(-c3ccc(-c4cnc(C(C(=O)N5CCCC5)C(C)(C)C)[nH]4)cc3)cc2)[nH]1 (centres unmarked) [Example B4] | <10
CC(C)(C)C(C(=O)NC1CCCCC1)c1ncc(-c2ccc(-c3ccc(-c4cnc(C(C(=O)NC5CCCCC5)C(C)(C)C)[nH]4)cc3)cc2)[nH]1 (centres unmarked) [Example B5] | <10
CC(C)[C@H](CC(=O)NCc1ccccc1Cl)c1ncc(-c2ccc(-c3ccc(-c4cnc([C@@H](CC(=O)NCc5ccccc5Cl)C(C)C)[nH]4)cc3)cc2)[nH]1 [Example MD-19] | >100
CC(C)N(C(=O)C[C@@H](CCC(F)(F)F)c1ncc(-c2ccc(-c3ccc(-c4cnc([C@H](CCC(F)(F)F)CC(=O)N(C(C)C)C5CC5)[nH]4)cc3)cc2)[nH]1)C1CC1 [Example MD-56] | <10
CC(C)NC(=O)C[C@@H](CCC(F)(F)F)c1ncc(-c2ccc(-c3ccc(-c4cnc([C@H](CCC(F)(F)F)CC(=O)N(C(C)C)C5CC5)[nH]4)cc3)cc2)[nH]1 [Example MD-57] | >10
CC(C)(C)C(C(=O)Nc1cccc(Cl)c1)c1ncc(-c2ccc(-c3ccc(-c4cnc(C(C(=O)Nc5cccc(Cl)c5)C(C)(C)C)[nH]4)cc3)cc2)[nH]1 (centres unmarked) [Example B2] | <10
CC(C)[C@H](CC(=O)NC1(C#N)CC1)c1ncc(-c2ccc(-c3ccc(-c4cnc([C@@H](CC(=O)NC5(C#N)CC5)C(C)C)[nH]4)cc3)cc2)[nH]1 [MD-31] | <10
CC(C)[C@H](CC(=O)NCC(C)(C)CO)c1ncc(-c2ccc(-c3ccc(-c4cnc([C@@H](CC(=O)NCC(C)(C)CO)C(C)C)[nH]4)cc3)cc2)[nH]1 [MD-42] | >10
CC(C)[C@H](CC(=O)NCC(C)(C)c1ccccc1)c1ncc(-c2ccc(-c3ccc(-c4cnc([C@@H](CC(=O)NCC(C)(C)c5ccccc5)C(C)C)[nH]4)cc3)cc2)[nH]1 [MD-47] | >100
COC(=O)NN(C(=O)[C@@H]1OCO[C@H]1c1ncc(-c2ccc(-c3ccc(-c4cnc([C@@H]5OCO[C@H]5C(=O)N(NC(=O)OC)C(C)C)[nH]4)cc3)cc2)[nH]1)C(C)C [MD-17] | <10
C[C@H](CC(=O)NCC1CC1)c1ncc(-c2ccc(-c3ccc(-c4cnc([C@H](C)CC(=O)NCC5CC5)[nH]4)cc3)cc2)[nH]1 [Example MD-38] | >100
CC(C)[C@H](CC(=O)NCC1(c2ccccc2)CCCCC1)c1ncc(-c2ccc(-c3ccc(-c4cnc([C@@H](CC(=O)NCC5(c6ccccc6)CCCCC5)C(C)C)[nH]4)cc3)cc2)[nH]1 [MD-23] | >100
COC(=O)NN(C(=O)[C@@H]1OC(C)(C)O[C@H]1c1ncc(-c2ccc(-c3ccc(-c4cnc([C@@H]5OC(C)(C)O[C@H]5C(=O)N(NC(=O)OC)C(C)C)[nH]4)cc3)cc2)[nH]1)C(C)C [MD-8] | <10
CC1(C)O[C@@H](C(N)=O)[C@H](c2ncc(-c3ccc(-c4ccc(-c5cnc([C@@H]6OC(C)(C)O[C@H]6C(N)=O)[nH]5)cc4)cc3)[nH]2)O1 [Example MD-9] | <10
CC(C)[C@H](CC(=O)NCC(C)(C)C(N)=O)c1ncc(-c2ccc(-c3ccc(-c4cnc([C@@H](CC(=O)NCC(C)(C)C(N)=O)C(C)C)[nH]4)cc3)cc2)[nH]1 [MD-51] | >10
CC(C)[C@H](CC(=O)NC[C@@H]1CC[C@H]2C[C@@H]1C2(C)C)c1ncc(-c2ccc(-c3ccc(-c4cnc([C@@H](CC(=O)NC[C@@H]5CC[C@H]6C[C@@H]5C6(C)C)C(C)C)[nH]4)cc3)cc2)[nH]1 [MD-21] | >100

Compound | Fold Synergistic (1a-QE) [Fold]
CCCCN(C(=O)C[C@H](c1ncc(-c2ccc(-c3ccc(-c4cnc([C@@H](CC(=O)N(CCCC)C(C)C)C(C)C)[nH]4)cc3)cc2)[nH]1)C(C)C)C(C)C [MD-26] | >10
CC(C)CNC(=O)[C@@H]1OCO[C@H]1c1ncc(-c2ccc(-c3ccc(-c4cnc([C@@H]5OCO[C@H]5C(=O)NCC(C)C)[nH]4)cc3)cc2)[nH]1 [MD-14] | <10
CC(C)NC(=O)CN(C)C(=O)C[C@H](c1ncc(-c2ccc(-c3ccc(-c4cnc([C@@H](CC(=O)N(C)CC(=O)NC(C)C)C(C)C)[nH]4)cc3)cc2)[nH]1)C(C)C [MD-48] | <10
C[C@@H]1CN(C(=O)C[C@@H](C)c2ncc(-c3ccc(-c4ccc(-c5cnc([C@H](C)CC(=O)N6C[C@@H](C)O[C@@H](C)C6)[nH]5)cc4)cc3)[nH]2)C[C@H](C)O1 [Example MD-36] | >10
CC(C)CNC(=O)C[C@@H](CCC(F)(F)F)c1ncc(-c2ccc(-c3ccc(-c4cnc([C@H](CCC(F)(F)F)CC(=O)NCC(C)C)[nH]4)cc3)cc2)[nH]1 [Example MD-3] | >10
CCOCC1(CNC(=O)C[C@H](c2ncc(-c3ccc(-c4ccc(-c5cnc([C@@H](CC(=O)NCC6(COCC)CC6)C(C)C)[nH]5)cc4)cc3)[nH]2)C(C)C)CC1 [Example MD-20] | >10
CCO[C@H](CC(=O)NCC(C)C)C(=O)N[C@H](c1ncc(-c2ccc(-c3ccc(-c4cnc([C@@H](NC(=O)[C@@H](CC(=O)NCC(C)C)OCC)C(C)(C)C)[nH]4)cc3)cc2)[nH]1)C(C)(C)C [MD-34] | >100
COC(=O)[C@@H](NC(=O)C[C@@H](CCC(F)(F)F)c1ncc(-c2ccc(-c3ccc(-c4cnc([C@H](CCC(F)(F)F)CC(=O)N[C@H](C(=O)OC)C(C)C)[nH]4)cc3)cc2)[nH]1)C(C)C [Example MD-1] | >10
C[C@H](CC(=O)NC1CCOCC1)c1ncc(-c2ccc(-c3ccc(-c4cnc([C@H](C)CC(=O)NC5CCOCC5)[nH]4)cc3)cc2)[nH]1 [MD-39] | >10
O=C(C[C@@H](CCC(F)(F)F)c1ncc(-c2ccc(-c3ccc(-c4cnc([C@H](CCC(F)(F)F)CC(=O)NC5CCOCC5)[nH]4)cc3)cc2)[nH]1)NC1CCOCC1 [MD-61] | <10
CC(C)[C@H](CC(=O)N(C)CC(C)(C)C)c1ncc(-c2ccc(-c3ccc(-c4cnc([C@@H](CC(=O)N(C)CC(C)(C)C)C(C)C)[nH]4)cc3)cc2)[nH]1 [MD-49] | >10
CC(C)CNC(=O)[C@@H]1OC(C)(C)O[C@H]1c1ncc(-c2ccc(-c3ccc(-c4cnc([C@@H]5OC(C)(C)O[C@H]5C(=O)NCC(C)C)[nH]4)cc3)cc2)[nH]1 [Example MD-7] | <10
CC(C)[C@H](CC(=O)NCC1(O)CCC1)c1ncc(-c2ccc(-c3ccc(-c4cnc([C@@H](CC(=O)NCC5(O)CCC5)C(C)C)[nH]4)cc3)cc2)[nH]1 [MD-54] | >10
CCC(CC)CNC(=O)C[C@H](c1ncc(-c2ccc(-c3ccc(-c4cnc([C@@H](CC(=O)NCC(CC)CC)C(C)C)[nH]4)cc3)cc2)[nH]1)C(C)C [MD-45] | >100
C[C@H](CC(=O)N1CCOCC1)c1ncc(-c2ccc(-c3ccc(-c4cnc([C@H](C)CC(=O)N5CCOCC5)[nH]4)cc3)cc2)[nH]1 [MD-37] | >10
CCCN(CC1CC1)C(=O)C[C@H](c1ncc(-c2ccc(-c3ccc(-c4cnc([C@@H](CC(=O)N(CCC)CC5CC5)C(C)C)[nH]4)cc3)cc2)[nH]1)C(C)C [MD-44] | >10
CC(C)[C@H](CC(=O)N1CCN(C)C(=O)C1)c1ncc(-c2ccc(-c3ccc(-c4cnc([C@@H](CC(=O)N5CCN(C)C(=O)C5)C(C)C)[nH]4)cc3)cc2)[nH]1 [MD-53] | <10
CC(C)CNC(=O)C[C@H](c1ncc(-c2ccc(-c3ccc(-c4cnc([C@@H](CC(=O)NCC(C)C)C(C)C)[nH]4)cc3)cc2)[nH]1)C(C)C [MD-35] | >10
CC(C)[C@H](CC(=O)NCC(C)(c1ccccc1)c1ccccc1)c1ncc(-c2ccc(-c3ccc(-c4cnc([C@@H](CC(=O)NCC(C)(c5ccccc5)c5ccccc5)C(C)C)[nH]4)cc3)cc2)[nH]1 [MD-28] | >100
CC(C)CNC(=O)C[C@@H](CCC(F)(F)F)c1ncc(-c2ccc(-c3ccc(-c4cnc([C@H](CCC(F)(F)F)CC(=O)O)[nH]4)cc3)cc2)[nH]1 [Example MD-4] | <10
CCN(CC)C(=O)C(c1ncc(-c2ccc(-c3ccc(-c4cnc(C(C(=O)N(CC)CC)C(C)(C)C)[nH]4)cc3)cc2)[nH]1)C(C)(C)C (centres unmarked) [Example B3] | >10
CC(C)[C@H](CC(=O)N(Cc1ccccc1)C(C)C)c1ncc(-c2ccc(-c3ccc(-c4cnc([C@@H](CC(=O)N(Cc5ccccc5)C(C)C)C(C)C)[nH]4)cc3)cc2)[nH]1 [MD-52] | >100
